In patent US20150290106A1, “Dentotropic Conjugates and Compositions and Methods of Use Thereof” (BOARD OF REGENTS OF THE UNIVERSITY OF NEBRASKA, priority 2012, published 2015):

Assays:
[1] = Menthol release in filtered saliva diluted 1:1 with PBS over 24 hours (GC/MS, FIG. 2); type: in vitro ADME, human; details: saliva/PBS 1:1, 37° C.
Protocol: FIG. 2 provides a graph of the menthol release after chloroform extraction over the course of 24 hours.
Into several 15-mL glass vials were placed 10 mg of menthol-PPi and 2 mL of fresh saliva. The saliva had been centrifuged to remove any free particles, then filtered through a 0.45 μm syringe filter to rid bacteria. It was then diluted 1:1 by volume with phosphate-buffered saline (PBS). Each sample was placed in a water bath incubator at 37° C., shaking at 40 rpm, for a specific amount of time over the course of 24 hours. One sample was withdrawn at each time interval, and vortexed for 10 seconds after direct addition of 2 mL of chloroform. The mixture was transferred to microcentrifuge tubes, after which each tube was centrifuged at 12,000 rpm for one minute to separate the chloroform phase from the water (saliva/PBS) phase. […] After GC/MS analysis of each sample, the total amount of menthol released was calculated using the integration areas of menthol and neomenthol, simplified into a ratio. […] The absolute amount, in μg, of menthol in each GC/MS vial was determined by multiplying the concentration by 1 mL, the total amount of solution in the vial. Then, the release amount was calculated by taking the previous value and multiplying it by a factor of 4, since the original sample was 2 mL. […]

[2] = Model tooth surface binding experiment (menthol-PPi/hydroxyapatite binding by 1H NMR); details: for speed of binding to HA (time to maximum binding): HA powder, vortex agitation, diphosphate
Protocol: Menthol-PPi (80 mg) was dissolved in deuterium oxide (D2O, 16.1159 g). Two drops (34.7 mg) of acetone was added as an internal reference when using NMR spectroscopy. Four time intervals were chosen for this study, each with three samples for each interval. Into each of twelve microcentrifuge tubes was added 10 mg hydroxyapatite (HA). One by one, […] was added to the tubes and then agitated with a vortex mixer at high speed for the allotted amount of time. Each tube was then centrifuged at 12.000 rpm for one minute. The liquid was then transferred to NMR tubes for analysis. Three blank NMR samples without the influence of HA were prepared for reference, as well as three control samples without pyrophosphate (i.e., menthol only) with HA. The spectra of the blank samples were compared to those of the experimental samples by observing the relative integration areas of the acetone peak vs. the signal from one methyl group of menthol's isopropyl component. No binding is observed without pyrophosphate.
An additional experiment was performed, changing the hydroxyapatite amount while keeping the vortex time fixed at 2 minutes for each sample, simulating the average time a person spends brushing his or her teeth. Menthol-PPi (80 mg) was dissolved in 16.14 g D2O. Two drops (25.7 mg) of acetone were again added as internal reference. One gram of the menthol-PPi solution was added to the HA test tubes just prior to vortex agitation, as before. Samples were again analyzed via ^1H NMR.

Row | SMILES | release profile of menthol from the pyrophosphate [1] | HA-Bound Conjugate (% ± σ %) ([2]; 10 mg hydroxyapatite, vortex time 1 min) | HA-Bound Conjugate (% ± σ %) ([2]; 10 mg hydroxyapatite, vortex time 2 min) | HA-Bound Conjugate (% ± σ %) ([2]; 10 mg hydroxyapatite, vortex time 5 min) | HA-Bound Conjugate (% ± σ %) ([2]; 10 mg hydroxyapatite, vortex time 10 min) | HA-Bound Conjugate (% ± σ %) ([2]; 20 mg hydroxyapatite, time fixed at two minutes) | HA-Bound Conjugate (% ± σ %) ([2]; 30 mg hydroxyapatite, time fixed at two minutes) | HA-Bound Conjugate (% ± σ %) ([2]; 40 mg hydroxyapatite, time fixed at two minutes) | speed of binding to HA (time to maximum binding) [2] | speed of binding to HA (time to maximum binding) ([2]; listed as menthol-PPi) | binding to HA ([2]; control samples without pyrophosphate (menthol only) with HA)
1 | CC(C)[C@@H]1CC[C@@H](C)C[C@H]1OC(=O)COP(=O)([O-])OP(=O)([O-])[O-].[Na+].[Na+].[Na+] [Menthol-PPi, sodium 2-((1R,2S,5R)-2-isopropyl-5-methylcyclohexyloxy)-2-oxoethyl diphosphate] | linear in nature | 27.56 ± 4.44% | 25.69 ± 0.77% | 28.30 ± 2.70% | 28.25 ± 3.04% | 33.88 ± 6.32% | 45.04 ± 1.34% | 54.51 ± 3.65% | within one minute | very quickly | –
2 | CC1CCC(C(C)C)C(O)C1 (centres unmarked) [menthol, reference compound] | – | – | – | – | – | – | – | – | – | – | No binding
